ChEMBL document CHEMBL1132596, “Non-peptide corticotropin-releasing hormone antagonists: syntheses and structure-activity relationships of 2-anilinopyrimidines and -triazines” (J Med Chem, 1999)

How the values were obtained:
[1] = biological target: T1, Corticotropin-releasing factor receptor 1 (Homo sapiens, UniProt P34998); assay: Binding affinity for human recombinant corticotropin releasing factor receptor 1
T1 sequence (P34998 whole entry): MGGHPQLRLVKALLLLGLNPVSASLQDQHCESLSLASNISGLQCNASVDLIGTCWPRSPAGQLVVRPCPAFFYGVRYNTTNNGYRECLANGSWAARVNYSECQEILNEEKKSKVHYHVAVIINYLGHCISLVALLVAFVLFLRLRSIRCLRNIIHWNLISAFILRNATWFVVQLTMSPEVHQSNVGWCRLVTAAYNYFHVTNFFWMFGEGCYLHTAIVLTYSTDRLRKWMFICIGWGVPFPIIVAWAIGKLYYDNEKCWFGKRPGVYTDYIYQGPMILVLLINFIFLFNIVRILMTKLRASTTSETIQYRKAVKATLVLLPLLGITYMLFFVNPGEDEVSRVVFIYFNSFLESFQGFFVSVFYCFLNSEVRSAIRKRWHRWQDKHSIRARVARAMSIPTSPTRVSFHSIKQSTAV

[2] = biological target: T2, Corticotropin-releasing factor receptor 1 (Rattus norvegicus, UniProt P35353); assay: Binding affinity was measured on rat Corticotropin releasing factor receptor 1
T2 sequence (P35353 whole entry): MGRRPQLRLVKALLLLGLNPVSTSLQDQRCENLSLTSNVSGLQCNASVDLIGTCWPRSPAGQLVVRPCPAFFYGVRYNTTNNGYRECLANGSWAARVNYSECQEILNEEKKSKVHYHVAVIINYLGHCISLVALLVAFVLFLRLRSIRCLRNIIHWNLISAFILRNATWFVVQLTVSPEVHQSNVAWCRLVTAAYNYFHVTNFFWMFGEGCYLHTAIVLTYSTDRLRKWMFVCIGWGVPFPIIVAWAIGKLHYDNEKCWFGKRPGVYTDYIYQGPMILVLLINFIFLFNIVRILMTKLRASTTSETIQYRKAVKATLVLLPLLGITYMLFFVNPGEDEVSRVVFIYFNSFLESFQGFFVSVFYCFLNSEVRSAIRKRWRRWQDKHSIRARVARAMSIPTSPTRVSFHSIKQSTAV

[3] = The maximum concentration of the compound was measured in dog at dose 5 mg/kg after peroral administration.; format: ADME, organism-based, Canis lupus familiaris; parameters: dose 5 mg/kg, route oral; settings: in vivo, po
[4] = The clearance was measured in dog at dose 5 mg/kg after intravenous administration.; format: ADME, organism-based, Canis lupus familiaris; parameters: dose 5 mg/kg, route intravenous; settings: in vivo
[5] = The clearance was measured in rat at dose 1 mg/kg after intravenous administration.; format: ADME, organism-based; parameters: dose 1 mg/kg, route intravenous; settings: in vivo
[6] = The maximum concentration of the compound was measured in rat at dose 30 mg/kg after intraperitoneal administration.; format: ADME, organism-based; parameters: dose 30 mg/kg, route intraperitoneal; settings: in vivo, ip
[7] = The Tmax is the time taken to reach maximum concentration was measured in rat at dose 30 mg/kg after peroral administration.; format: ADME, organism-based; parameters: dose 30 mg/kg, route oral; settings: in vivo, po
[8] = The half life period was measured in rat at dose 1 mg/kg after intravenous administration.; format: ADME, organism-based; parameters: dose 1 mg/kg, route intravenous; settings: in vivo
[9] = The bioavailability measured as F(%) in dog at dose 5 mg/kg after peroral administration.; format: ADME, organism-based, Canis lupus familiaris; settings: in vivo, po
[10] = The Tmax is the time taken to reach maximum concentration was measured in dog at dose 5 mg/kg after peroral administration.; format: ADME, organism-based, Canis lupus familiaris; parameters: dose 5 mg/kg, route oral; settings: in vivo, po
[11] = The clearance was measured in rat at dose 12 mg/kg after intravenous administration.; format: ADME, organism-based; parameters: dose 12 mg/kg, route intravenous; settings: in vivo
[12] = The Tmax is the time taken to reach maximum concentration was measured in rat at dose 1 mg/kg after peroral administration.; format: ADME, organism-based; parameters: dose 1 mg/kg, route oral; settings: in vivo, po
[13] = The maximum concentration of the compound was measured in rat at dose 30 mg/kg after peroral administration.; format: ADME, organism-based; parameters: dose 30 mg/kg, route oral; settings: in vivo, po
[14] = Bioavailability in rat (dose 30 mg/kg i.p.); format: ADME, organism-based; settings: in vivo, ip
[15] = The maximum concentration of the compound was measured in rat at dose 1 mg/kg after peroral administration.; format: ADME, organism-based; parameters: dose 1 mg/kg, route oral; settings: in vivo, po
[16] = The half life period was measured in rat at dose 12 mg/kg after intravenous administration.; format: ADME, organism-based; parameters: dose 12 mg/kg, route intravenous; settings: in vivo
[17] = The Tmax is the time taken to reach maximum concentration was measured in rat at dose 30 mg/kg after intraperitoneal administration.; format: ADME, organism-based; parameters: dose 30 mg/kg, route intraperitoneal; settings: in vivo, ip
[18] = The half life period was measured in dog at dose 5 mg/kg after intravenous administration.; format: ADME, organism-based, Canis lupus familiaris; parameters: dose 5 mg/kg, route intravenous; settings: in vivo
[19] = The bioavailability measured as F(%) on rat at dose 30 mg/kg […].; format: ADME, organism-based; settings: in vivo
[20] = the half life period was measured in rat at dose 30 mg/kg after intravenous administration.; format: ADME, organism-based; parameters: dose 30 mg/kg, route intravenous; settings: in vivo
[21] = The maximum concentration of the compound was measured in rat at dose 30 mg/kg after intravenous administration.; format: ADME, organism-based; parameters: dose 30 mg/kg, route intravenous; settings: in vivo
[22] = Tmax is the time taken to reach maximum concentration was measured on rat at dose 30 mg/kg after intravenous administration.; format: ADME, organism-based; parameters: dose 30 mg/kg, route intravenous; settings: in vivo
[23] = Tmax is the time taken to reach maximum concentration was measured on rat at dose 30 mg/kg after intraperitoneal administration.; format: ADME, organism-based; parameters: dose 30 mg/kg, route intraperitoneal; settings: in vivo, ip
[24] = The clearance was measured in rat at dose 30 mg/kg after intravenous administration.; format: ADME, organism-based; parameters: dose 30 mg/kg, route intravenous; settings: in vivo

| SMILES | Ki [1] | other results |
| --- | --- | --- |
| C=CCN(CC=C)c1nc(C)nc(N(CC)c2ccc(N(C)C)cc2Br)n1 | 3 nM | – |
| CCCN(CCC)c1nc(C)nc(N(CC)c2ccc(N(C)C)cc2C)n1 | 7 nM | – |
| CCN(c1nc(C)cc(C)n1)c1c(Br)cc(C(C)C)cc1SC | 51 nM | – |
| CCN(c1nc(C)cc(C)n1)c1ccc(OC)cc1SC | 60 nM | – |
| CCN(c1nc(C)cc(C)n1)c1ccc(N(C)C)cc1SC | 20 nM | – |
| CCCN(CCC)c1nc(C)nc(N(CC)c2ccc(N(C)C)cc2C(F)(F)F)n1 | 6 nM | – |
| CCN(c1nc(C)cc(N2CCNCC2)n1)c1ccc(C(C)C)cc1Br | > 1000 nM | – |
| CCN(c1nc(C)cc(C)n1)c1ccc(OC)cc1Br | 35 nM | – |
| CCCN(CCC)c1nc(C)nc(N(CC)c2ccc(C(C)C)cc2Br)n1 | 4 nM | – |
| CCN(CC)c1cc(C)nc(N(CC)c2ccc(N(C)C)cc2C(F)(F)F)n1 | 11 nM | – |
| CCCCc1ccc(N(CC)c2nc(C)cc(C)n2)c(Br)c1 | > 100 nM | – |
| CCCN(CC1CC1)c1cc(C)nc(N(CC)c2ccc(C(C)C)cc2Br)n1 | 9 nM | – |
| CCCCN(CC)c1cc(C)nc(N(CC)c2ccc(C(C)C)cc2Br)n1 | 19 nM | – |
| CCN(CC)c1cc(C)nc(N(CC)c2c(Cl)cc(OC)cc2OC)n1 | 10 nM | – |
| Cc1ccc(N(C)c2nc(C)cc(C)n2)c(Br)c1 | – | Ki [2]: 1100 nM |
| CCN(CC)c1cc(C)nc(N(CC)c2c(Br)cc(OC)cc2OC)n1 | 48 nM | – |
| CCCN(c1cc(C)nc(N(CC)c2ccc(C(C)C)cc2Br)n1)C1CC1 | 5 nM | – |
| CCN(CC)c1cc(C)nc(N(CC)c2ccc(I)cc2Br)n1 | 9 nM | – |
| CCN(c1nc(C)cc(C)n1)c1ccc(C(C)=O)cc1SC | 90 nM | – |
| CCCN(CCC#N)c1nc(C)nc(N(CC)c2ccc(N(C)C)cc2C(F)(F)F)n1 | 5 nM | – |

| SMILES | Ki [1] | other results |
| --- | --- | --- |
| CCCCN(CC)c1nc(C)nc(N(CC)c2ccc(OC(F)(F)F)cc2Br)n1 | 5 nM | – |
| CCN(c1nc(C)nc(N(CC2CC2)CC2CC2)n1)c1ccc(N(C)C)cc1C(F)(F)F | 5 nM | – |
| CCN(CC)c1cc(C)nc(N(CC)c2c(Cl)cc(OC)cc2Cl)n1 | 15 nM | – |
| CCN(Cc1ccccc1)c1cc(C)nc(N(CC)c2ccc(C(C)C)cc2Br)n1 | 17 nM | – |
| CCN(c1nc(C)cc(N(CCOC)CCOC)n1)c1ccc(C(C)C)cc1Br | 25 nM | – |
| CCN(c1nc(C)cc(C)n1)c1ccccc1Br | > 1000 nM | – |
| CCN(c1nc(C)nc(N(CCOC)CCOC)n1)c1ccc(C(C)C)cc1Br | 18 nM | – |
| CCN(c1nc(C)cc(C)n1)c1ccc(C(C)(C)C)cc1Br | > 100 nM | – |
| CCCCN(CC)c1cc(C)nc(N(CC)c2ccc(C(C)=O)cc2Br)n1 | 8 nM | – |
| CCCCN(CCC#N)c1nc(C)nc(N(CC)c2ccc(N(C)C)cc2C)n1 | 8 nM | – |
| CCN(c1nc(C)nc(N2CCOCC2)n1)c1c(Br)cc(OC)cc1OC | 32 nM | Cmax [3]: 730 nM; clearance [4]: 21.7 mL/min/kg; clearance [5]: 66.7 mL/min/kg; Cmax [6]: 2700 nM; Tmax [7]: 1.6 h; half-life [8]: 7.6 h; bioavailability [9]: 20%; Tmax [10]: 0.5 h; clearance [11]: 48.3 mL/min/kg; Tmax [12]: 0.3 h; Cmax [13]: 753 nM; bioavailability [14]: 47%; Cmax [15]: 21 nM; half-life [16]: 15.6 h; Tmax [17]: 0.3 h; half-life [18]: 6 h |
| CCc1cc(CC)nc(N(CC)c2ccc(C(C)C)cc2Br)n1 | > 100 nM | – |
| CCN(CC)c1nc(C)nc(N(CC)c2ccc(N(C)C)cc2Br)n1 | 6 nM | – |
| C=CCN(CC=C)c1nc(C)nc(N(CC)c2ccc(C(C)C)cc2Br)n1 | 4 nM | – |
| CCN(c1nc(C)cc(N2CCCCC2)n1)c1ccc(C(C)C)cc1Br | 29 nM | – |
| CCN(c1nc(C)cc(N2CCOCC2)n1)c1ccc(C(C)C)cc1Br | 22 nM | – |
| CCCCN(CC#N)c1nc(C)nc(N(CC)c2ccc(N(C)C)cc2C)n1 | 8 nM | – |
| CCCCN(Cc1nnnn1C)c1cc(C)nc(N(CC)c2ccc(C(C)C)cc2Br)n1 | 41 nM | – |
| CCN(c1nc(C)cc(C)n1)c1c(Br)cc(OC)cc1OC | 12 nM | Cmax [6]: 366 nM; bioavailability [19]: 26%; half-life [20]: 5.9 h; Cmax [21]: 1880 nM; Tmax [22]: 0.25 h; bioavailability [14]: 4%; Tmax [23]: 1.2 h; clearance [24]: 88.7 mL/min/kg |
